From patent publication US10988477B2 (Merck Patent GmbH, priority 2018, dated 2021)

target: GCN2 kinase (Homo sapiens, UniProt Q9P2K8); assay: GCN2 enzyme inhibition assay (Transcreener ADP2 fluorescence polarization); type: biochemical; conditions: Enzyme activity for compounds of Formula IV; Ki(app), 280 μM ATP, 25° C.
In short: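 FP detection of ADP (antibody plus Alexa633 tracer) after a 1 h, 25 °C kinase reaction. Enzyme 4 nM, ATP 280 μM, (RS)7 peptide 200 μM, Tris pH 7.5 buffer with MgCl2 and DTT. Percent inhibition fitted by non-linear tight-binding algorithm for IC50 and Ki(app).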

Chain of GCN2 kinase (Q9P2K8 whole entry): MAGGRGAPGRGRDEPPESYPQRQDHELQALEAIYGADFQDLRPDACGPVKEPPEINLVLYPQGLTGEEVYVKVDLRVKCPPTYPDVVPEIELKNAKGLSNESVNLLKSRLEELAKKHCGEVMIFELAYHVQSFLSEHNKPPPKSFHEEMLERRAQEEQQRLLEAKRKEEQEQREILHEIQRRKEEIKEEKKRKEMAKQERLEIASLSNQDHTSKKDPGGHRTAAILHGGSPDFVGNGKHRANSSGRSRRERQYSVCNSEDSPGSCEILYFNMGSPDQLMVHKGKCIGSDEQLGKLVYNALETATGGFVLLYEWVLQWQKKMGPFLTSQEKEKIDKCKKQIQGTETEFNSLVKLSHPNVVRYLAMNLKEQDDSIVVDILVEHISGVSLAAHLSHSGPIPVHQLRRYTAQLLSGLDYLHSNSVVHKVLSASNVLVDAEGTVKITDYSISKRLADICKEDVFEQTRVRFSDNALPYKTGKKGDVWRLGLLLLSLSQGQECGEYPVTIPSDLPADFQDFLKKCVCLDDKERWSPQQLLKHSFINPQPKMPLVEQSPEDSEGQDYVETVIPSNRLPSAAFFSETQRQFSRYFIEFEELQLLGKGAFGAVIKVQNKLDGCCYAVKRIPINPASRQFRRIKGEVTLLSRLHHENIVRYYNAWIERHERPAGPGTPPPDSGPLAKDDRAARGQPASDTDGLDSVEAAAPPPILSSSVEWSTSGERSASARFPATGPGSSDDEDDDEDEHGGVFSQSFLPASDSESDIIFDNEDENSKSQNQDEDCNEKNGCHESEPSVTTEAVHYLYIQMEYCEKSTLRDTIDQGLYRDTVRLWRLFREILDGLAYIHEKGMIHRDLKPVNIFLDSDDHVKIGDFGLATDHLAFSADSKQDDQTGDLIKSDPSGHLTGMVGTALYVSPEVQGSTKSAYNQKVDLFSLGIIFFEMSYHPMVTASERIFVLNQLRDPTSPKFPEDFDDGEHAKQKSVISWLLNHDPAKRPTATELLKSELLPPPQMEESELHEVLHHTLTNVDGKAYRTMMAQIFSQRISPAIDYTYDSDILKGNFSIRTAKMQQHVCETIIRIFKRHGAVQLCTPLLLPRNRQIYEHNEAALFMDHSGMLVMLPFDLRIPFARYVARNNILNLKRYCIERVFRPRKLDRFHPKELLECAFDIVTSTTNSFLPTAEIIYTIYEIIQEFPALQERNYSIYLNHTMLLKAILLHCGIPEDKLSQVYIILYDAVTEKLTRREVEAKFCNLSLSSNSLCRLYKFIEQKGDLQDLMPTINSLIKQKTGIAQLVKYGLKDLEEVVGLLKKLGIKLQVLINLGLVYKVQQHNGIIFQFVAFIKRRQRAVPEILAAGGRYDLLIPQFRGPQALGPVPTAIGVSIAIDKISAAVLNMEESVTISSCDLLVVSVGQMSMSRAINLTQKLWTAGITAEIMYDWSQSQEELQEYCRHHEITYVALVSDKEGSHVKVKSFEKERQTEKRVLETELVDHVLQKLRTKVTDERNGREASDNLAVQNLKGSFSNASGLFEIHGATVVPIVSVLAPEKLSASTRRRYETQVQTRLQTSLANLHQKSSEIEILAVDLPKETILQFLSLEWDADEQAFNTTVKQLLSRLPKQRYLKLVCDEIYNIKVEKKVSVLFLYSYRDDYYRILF

**Q.** With `CC1(C)CN(c2ccnc(-c3cnc4cnc(C(F)(F)F)cn34)n2)CC(c2cn[nH]c2)N1` (stereo not drawn) [IV-327, 3-(4-(3,3-Dimethyl-5-(1H-pyrazol-4-yl)piperazin-1-yl)pyrimidin-2-yl)-6-(trifluoromethyl)imidazo[1,2-a]pyrazine] as the compound, how does the Ki read?
**A.** The Ki was 10 to 100 nM.

**Q.** How did the Ki turn out when `CCN1C(C)CN(c2ccnc(-c3cnc4cnc(C(F)(F)F)cn34)n2)C(C)C1c1cn[nH]c1` (single isomer, unassigned) [IV-296, 3-(4-(4-Ethyl-2,5-dimethyl-3-(1H-pyrazol-4-yl)piperazin-1-yl)pyrimidin-2-yl)-6-(trifluoromethyl)imidazo[1,2-a]pyrazine] was run?
**A.** The Ki was < 10 nM.

**Q.** `C[C@@H]1CN(c2ccnc(-c3cnc4cnc(C(F)(F)F)cn34)n2)C[C@H](c2cncn2C)N1` (racemic) [IV-672, Cis-3-(4-(3-Methyl-5-(1-methyl-1H-imidazol-5-yl)piperazin-1-yl)pyrimidin-2-yl)-6-(trifluoromethyl)imidazo[1,2-a]pyrazine] was tested. Which Ki did it give?
**A.** The Ki was 100 to 1000 nM.

**Q.** With `CC(C)(C)C1OCN2CCN(c3ccnc(-c4cnc5cnc(C(F)(F)F)cn45)n3)CC12` (stereo not drawn) [IV-506, 1-(tert-Butyl)-7-(2-(6-(trifluoromethyl)imidazo[1,2-a]pyrazin-3-yl)pyrimidin-4-yl)hexahydro-3H-oxazolo[3,4-a]pyrazine] as the compound, how does the Ki read?
**A.** The Ki was 100 to 1000 nM.

**Q.** `CC1CN(c2ccnc(-c3cnc4cnc(C(F)(F)F)cn34)n2)CC1C` (stereo not drawn) [IV-555, 3-(4-(3,4-Dimethylpyrrolidin-1-yl)pyrimidin-2-yl)-6-(trifluoromethyl)imidazo[1,2-a]pyrazine] was tested. Which Ki did it give?
**A.** The Ki was 100 to 1000 nM.

**Q.** For `C[C@H]1[C@@H](C(N)=O)CCCN1c1ccnc(-c2cnc3cnc(C(F)(F)F)cn23)n1` (racemic) [IV-453, Cis-2-Methyl-1-(2-(6-(trifluoromethyl)imidazo[1,2-a]pyrazin-3-yl)pyrimidin-4-yl)piperidine-3-carboxamide], which Ki is on record?
**A.** Its Ki is < 10 nM.

**Q.** Which Ki does the source give for `C[C@H]1[C@H](c2cn[nH]c2)OCCN1c1ccnc(-c2cnc3cnc(Cl)cn23)n1` (racemic) [IV-236, Trans-4-(2-(6-Chloroimidazo[1,2-a]pyrazin-3-yl)pyrimidin-4-yl)-3-methyl-2-(1H-pyrazol-4-yl)morpholine] here?
**A.** The Ki was 10 to 100 nM.

**Q.** `CC1C(C(N)=O)CCCN1c1ccnc(-c2cnc3cnc(C(F)(F)F)cn23)n1` (single isomer, unassigned) [IV-498, 2-Methyl-1-(2-(6-(trifluoromethyl)imidazo[1,2-a]pyrazin-3-yl)pyrimidin-4-yl)piperidine-3-carboxamide] was tested. Which Ki did it give?
**A.** The Ki was 100 to 1000 nM.

**Q.** How did the Ki turn out when `CNS(=O)(=O)C1CCCN(c2ccnc(-c3cnc4cnc(C(N)=O)cn34)n2)C1` (stereo not drawn) [IV-251, 3-(4-(3-(N-Methylsulfamoyl)piperidin-1-yl)pyrimidin-2-yl)imidazo[1,2-a]pyrazine-6-carboxamide] was run?
**A.** The Ki was 100 to 1000 nM.

**Q.** For `CCN1C(C)CN(c2ccnc(-c3cnc4cnc(C(F)(F)F)cn34)n2)C(C)C1c1cn[nH]c1` (single isomer, unassigned) [IV-295, 3-(4-(4-Ethyl-2,5-dimethyl-3-(1H-pyrazol-4-yl)piperazin-1-yl)pyrimidin-2-yl)-6-(trifluoromethyl)imidazo[1,2-a]pyrazine], which Ki is on record?
**A.** The Ki was 100 to 1000 nM.

**Q.** `CC1C(c2cn[nH]c2)OCCN1c1ccnc(-c2cnc3cnc(C#N)cn23)n1` (single isomer, unassigned) [IV-290, 3-(4-(3-Methyl-2-(1H-pyrazol-4-yl)morpholino)pyrimidin-2-yl)imidazo[1,2-a]pyrazine-6-carbonitrile] was tested. Which Ki did it give?
**A.** Its Ki is < 10 nM.

**Q.** With `CC1CC(c2cn[nH]c2)C(C)N(c2ccnc(-c3cnc4cnc(C(F)(F)F)cn34)n2)C1` (single isomer, unassigned) [IV-310] as the compound, how does the Ki read?
**A.** Its Ki is 10 to 100 nM.

**Q.** Which Ki does the source give for `NC(=O)c1cn2c(-c3nccc(N4CCC5(CC4)OCCO5)n3)cnc2cn1` [IV-266, 3-(4-(1,4-Dioxa-8-azaspiro[4.5]decan-8-yl)pyrimidin-2-yl)imidazo[1,2-a]pyrazine-6-carboxamide] here?
**A.** The Ki was 10 to 100 nM.

**Q.** `FC(F)(F)c1cn2c(-c3nccc(N4CCNC(c5cn[nH]c5)C4)n3)cnc2cn1` (single isomer, unassigned) [IV-231, 3-(4-(3-(1H-Pyrazol-4-yl)piperazin-1-yl)pyrimidin-2-yl)-6-(trifluoromethyl)imidazo[1,2-a]pyrazine] was tested. Which Ki did it give?
**A.** The Ki was 100 to 1000 nM.

**Q.** How did the Ki turn out when `FC(F)c1cn2c(-c3nccc(-c4cccc(N5CCNCC5)n4)n3)cnc2cn1` [IV-149, 6-(Difluoromethyl)-3-(4-(6-(piperazin-1-yl)pyridin-2-yl)pyrimidin-2-yl)imidazo[1,2-a]pyrazine] was run?
**A.** The Ki was 100 to 1000 nM.

**Q.** How did the Ki turn out when `FC(F)(F)c1cn2c(-c3nccc(N4CCCC(n5ccnn5)C4)n3)cnc2cn1` (stereo not drawn) [IV-600, 3-(4-(3-(1H-1,2,3-Triazol-1-yl)piperidin-1-yl)pyrimidin-2-yl)-6-(trifluoromethyl)imidazo[1,2-a]pyrazine] was run?
**A.** The Ki was 100 to 1000 nM.

**Q.** `O=CNC1CCCN(c2ccnc(-c3cnc4cnc(C(F)(F)F)cn34)n2)C1` (stereo not drawn) [IV-332, N-(1-(2-(6-(trifluoromethyl)imidazo[1,2-a]pyrazin-3-yl)pyrimidin-4-yl)piperidin-3-yl)formamide] was tested. Which Ki did it give?
**A.** Its Ki is 100 to 1000 nM.

**Q.** Which Ki does the source give for `O=C1NCCN2CCN(c3ccnc(-c4cnc5cnc(C(F)(F)F)cn45)n3)CC12` (stereo not drawn) [IV-568, 8-(2-(6-(Trifluoromethyl)imidazo[1,2-a]pyrazin-3-yl)pyrimidin-4-yl)hexahydro-2H-pyrazino[1,2-a]pyrazin-1(6H)-one] here?
**A.** Its Ki is 100 to 1000 nM.

**Q.** For `CN1CCCC2(CCN(c3ccnc(-c4cnc5cnc(C(F)(F)F)cn45)n3)C2)C1=O` (stereo not drawn) [IV-554, 7-Methyl-2-(2-(6-(trifluoromethyl)imidazo[1,2-a]pyrazin-3-yl)pyrimidin-4-yl)-2,7-diazaspiro[4.5]decan-6-one], which Ki is on record?
**A.** The Ki was 100 to 1000 nM.

**Q.** Which Ki does the source give for `CC(=O)NCC1CCCN(c2ccnc(-c3cnc4cnc(C(F)(F)F)cn34)n2)C1` (stereo not drawn) [IV-526, N-((1-(2-(6-(Trifluoromethyl)imidazo[1,2-a]pyrazin-3-yl)pyrimidin-4-yl)piperidin-3-yl)methyl)acetamide] here?
**A.** Its Ki is 100 to 1000 nM.

**Q.** Which Ki does the source give for `Nc1cnn(C2CCN(c3ccnc(-c4cnc5cnc(C(F)(F)F)cn45)n3)C2)c1` (stereo not drawn) [IV-478, 1-(1-(2-(6-(Trifluoromethyl)imidazo[1,2-a]pyrazin-3-yl)pyrimidin-4-yl)pyrrolidin-3-yl)-1H-pyrazol-4-amine] here?
**A.** Its Ki is 100 to 1000 nM.

**Q.** With `CC(C)(O)C1CCN(c2ccnc(-c3cnc4cnc(C(F)(F)F)cn34)n2)C1` (stereo not drawn) [IV-520, 2-(1-(2-(6-(Trifluoromethyl)imidazo[1,2-a]pyrazin-3-yl)pyrimidin-4-yl)pyrrolidin-3-yl)propan-2-ol] as the compound, how does the Ki read?
**A.** The Ki was 100 to 1000 nM.

**Q.** With `NC(=O)c1cn2c(-c3cccc(N4CCC(CO)CC4)n3)cnc2cn1` [IV-221, 3-(6-(4-(Hydroxymethyl)piperidin-1-yl)pyridin-2-yl)imidazo[1,2-a]pyrazine-6-carboxamide] as the compound, how does the Ki read?
**A.** Its Ki is 10 to 100 nM.

**Q.** Which Ki does the source give for `C[C@H]1NCCN(c2ccnc(-c3cnc4cnc(C5CC5)cn34)n2)[C@H]1c1cn[nH]c1` (relative stereo) [IV-412, Cis-6-Cyclopropyl-3-(4-(3-methyl-2-(1H-pyrazol-4-yl)piperazin-1-yl)pyrimidin-2-yl)imidazo[1,2-a]pyrazine] here?
**A.** Its Ki is 100 to 1000 nM.

**Q.** How did the Ki turn out when `N#CC1CCN(c2ccnc(-c3cnc4cnc(C(N)=O)cn34)n2)CC1` [IV-254, 3-(4-(4-Cyanopiperidin-1-yl)pyrimidin-2-yl)imidazo[1,2-a]pyrazine-6-carboxamide] was run?
**A.** Its Ki is 10 to 100 nM.

**Q.** For `O=C1CCCC2CN(c3ccnc(-c4cnc5cnc(Cl)cn45)n3)CCN12` (single isomer, unassigned) [IV-294, 2-(2-(6-Chloroimidazo[1,2-a]pyrazin-3-yl)pyrimidin-4-yl)octahydro-6H-pyrido[1,2-a]pyrazin-6-one], which Ki is on record?
**A.** The Ki was 10 to 100 nM.

**Q.** For `CS(=N)(=O)CC1CCCN(c2ccnc(-c3cnc4cnc(C(F)F)cn34)n2)C1` (single isomer, unassigned) [IV-338, ((1-(2-(6-(Difluoromethyl)imidazo[1,2-a]pyrazin-3-yl)pyrimidin-4-yl)piperidin-3-yl)methyl)(imino)(methyl)-λ^6-sulfanone], which Ki is on record?
**A.** The Ki was 100 to 1000 nM.

same assay, conditions: compounds of Formula II; 280 μM ATP, 4 nM GCN2 kinase

**Q.** Which Ki does the source give for `FC(F)c1ccc2ncc(-c3ccnc(N4C[C@@H]5C[C@H]4CN5)c3)n2n1` [II-165, 3-(2-((1S,4S)-2,5-Diazabicyclo[2.2.1]heptan-2-yl)pyridin-4-yl)-6-(difluoromethyl)imidazo[1,2-b]pyridazine] here?
**A.** The Ki was 10 to 1000 nM.

**Q.** `Cc1cc(CN=S(C)(C)=O)cc(-c2cc(-c3cnc4ccc(C(F)F)nn34)ncn2)c1` [II-610, [3-[6-[6-(Difluoromethyl)imidazo[1,2-b]pyridazin-3-yl]pyrimidin-4-yl]-5-methyl-phenyl]methylimino-dimethyl-oxo-λ^6-sulfane] was tested. Which Ki did it give?
**A.** The Ki was 10 to 1000 nM.

**Q.** With `Cc1noc([C@@H]2CN(c3cc(-c4cnc5ccc(C(F)(F)F)nn45)ccn3)C[C@@H](C)O2)n1` [II-742] as the compound, how does the Ki read?
**A.** Its Ki is 10 to 1000 nM.

**Q.** For `CC1CCN(c2cc(-c3cnc4ccc(C(F)F)nn34)ncn2)CC1N=S(C)(C)=O` (single isomer, unassigned) [II-632, ((1-(6-(6-(Difluoromethyl)imidazo[1,2-b]pyridazin-3-yl)pyrimidin-4-yl)-4-methylpiperidin-3-yl)imino)dimethyl-λ^6-sulfanone], which Ki is on record?
**A.** The Ki was 10 to 1000 nM.

**Q.** `CS(C)(=O)=Nc1cccc(-c2cc(-c3cnc4ccc(C(F)F)nn34)ncn2)c1` [II-599, [3-[6-[6-(Difluoromethyl)imidazo[1,2-b]pyridazin-3-yl]pyrimidin-4-yl]phenyl]imino-dimethyl-oxo-λ^6-sulfane] was tested. Which Ki did it give?
**A.** The Ki was 10 to 1000 nM.

**Q.** Which Ki does the source give for `C[C@@H]1C[C@H](CO)[C@H](C)N(c2cc(-c3cnc4ccc(C(F)F)nn34)ncn2)C1` (single isomer, unassigned) [II-585] here?
**A.** Its Ki is < 10 nM.

**Q.** Which Ki does the source give for `Cc1cc(C(=O)N=S(C)(C)=O)cc(-c2cc(-c3cnc4ccc(C(F)F)nn34)ncn2)c1` [II-611, 3-(6-(6-(difluoromethyl)imidazo[1,2-b]pyridazin-3-yl)pyrimidin-4-yl)-N-(dimethyl(oxo)-λ^6-sulfanylidene)-5-methylbenzamide] here?
**A.** The Ki was 10 to 1000 nM.

**Q.** With `CC1CN(c2cc(-c3cnc4ccc(C(F)F)nn34)ncn2)CC(CO)C1(F)F` (stereo not drawn) [II-623, (1-(6-(6-(Difluoromethyl)imidazo[1,2-b]pyridazin-3-yl)pyrimidin-4-yl)-4,4-difluoro-5-methylpiperidin-3-yl)methanol] as the compound, how does the Ki read?
**A.** The Ki was < 10 nM.

**Q.** How did the Ki turn out when `Cc1noc([C@@H]2CN(c3cc(-c4cnc5ccc(C(F)(F)F)nn45)ccn3)C[C@H](C)O2)n1` [II-745] was run?
**A.** Its Ki is 10 to 1000 nM.
